Columns and labels:
[1] = test system: HepG2; assay: drug sensitivity score (DSS) for viability; higher = more toxic; extreme values may be limits of the assay; settings: 72 h
[2] = test system: Caco-2; assay: as above; settings: 72 h
[3] = test system: Calu-3; assay: as above; settings: 72 h
[4] = test system: Vero E6; assay: as above; settings: 72 h
[5] = test system: U2OS; assay: as above; settings: 72 h
[6] = test system: A549-ACE2 infected with SARS-CoV-2; assay: morphology score (similarity to uninfected cells); higher = more like uninfected cells; settings: 24 h
[7] = test system: A549-ACE2; assay: drug-induced phospholipidosis relative to tamoxifen; higher = more phospholipidosis
[8] = test system: A549-ACE2 infected with SARS-CoV-2; assay: SARS-CoV-2 infection rate relative to DMSO; higher = more infection; settings: 24 h
[9] = test system: HepG2; assay: relative viability EC50 (midpoint between 100% and the lowest measured viability); higher = less toxic; settings: 72 h
[10] = test system: Caco-2; assay: as above; settings: 72 h
[11] = test system: Calu-3; assay: as above; settings: 72 h
[12] = test system: Vero E6; assay: as above; settings: 72 h
[13] = test system: U2OS; assay: as above; settings: 72 h
[14] = test system: A549-ACE2; assay: phospholipidosis EC50; higher = less potent phospholipidosis inducer
[15] = test system: A549-ACE2 infected with SARS-CoV-2; assay: cell count relative to DMSO; higher = less toxic; settings: 24 h
[16] = test system: HepG2; assay: cell viability relative to DMSO; higher = less toxic; settings: 72 h
[17] = test system: Caco-2; assay: as above; settings: 72 h
[18] = test system: Calu-3; assay: as above; settings: 72 h
[19] = test system: Vero E6; assay: as above; settings: 72 h
[20] = test system: U2OS; assay: as above; settings: 72 h

OC1(c2ccc(Cl)c(C(F)(F)F)c2)CCN(CCCC(c2ccc(F)cc2)c2ccc(F)cc2)CC1 [penfluridol]
Settings	drug sensitivity score	relative viability EC50 [µM]
[1]	5.3	–
[2]	8.4	–
[3]	6.5	–
[4]	5.9	–
[5]	6.4	–
[9]	–	3.34
[10]	–	1.83
[11]	–	2.6
[12]	–	3
[13]	–	2.6

Settings	SARS-CoV-2 infection rate [%]	cell count [%]	cell viability [%]	morphology score	phospholipidosis EC50 [µM]
[6], 0.1 µM	–	–	–	0.06	–
[6], 0.3 µM	–	–	–	0.27	–
[6], 1 µM	–	–	–	0.55	–
[6], 3 µM	–	–	–	0.86	–
[8], 0.1 µM	100	–	–	–	–
[8], 0.3 µM	102	–	–	–	–
[8], 1 µM	74	–	–	–	–
[8], 3 µM	8	–	–	–	–
[14], 24 h	–	–	–	–	0.874
[15], 0.1 µM	–	101	–	–	–
[15], 0.3 µM	–	94	–	–	–
[15], 1 µM	–	113	–	–	–
[15], 3 µM	–	95	–	–	–
[16], 1 nM	–	–	106	–	–
[16], 10 nM	–	–	108	–	–
[16], 100 nM	–	–	104	–	–
[16], 1000 nM	–	–	103	–	–
[16], 10000 nM	–	–	0.2	–	–
[17], 1 nM	–	–	87.3	–	–
[17], 10 nM	–	–	74.2	–	–
[17], 100 nM	–	–	96.5	–	–
[17], 1000 nM	–	–	82.2	–	–
[17], 10000 nM	–	–	0.3	–	–
[18], 1 nM	–	–	102	–	–
[18], 10 nM	–	–	95.2	–	–
[18], 100 nM	–	–	100	–	–
[18], 1000 nM	–	–	93.1	–	–
[18], 10000 nM	–	–	1	–	–
[19], 1 nM	–	–	105	–	–
[19], 10 nM	–	–	96.3	–	–
[19], 100 nM	–	–	94.1	–	–
[19], 1000 nM	–	–	97.8	–	–
[19], 10000 nM	–	–	0.1	–	–
[20], 1 nM	–	–	99.4	–	–
[20], 10 nM	–	–	100	–	–
[20], 100 nM	–	–	104	–	–
[20], 1000 nM	–	–	93.2	–	–
[20], 10000 nM	–	–	3	–	–

drug-induced phospholipidosis [%], [7]
Settings	0.3 µM	0.833333 µM	3.33333 µM	6.66667 µM
24 h	12.8	30.2	64.4	48.3
48 h	13.8	28.2	67.6	–
72 h	16.8	26.4	77.7	–

CNCC[C@H](Oc1cccc2ccccc12)c1cccs1 [duloxetine]
Settings	drug sensitivity score	relative viability EC50 [µM]
[1]	0	–
[2]	0	–
[3]	1.3	–
[4]	0	–
[9]	–	> 10
[10]	–	> 10
[11]	–	> 10
[12]	–	> 10

Settings	SARS-CoV-2 infection rate [%]	cell count [%]	cell viability [%]	morphology score	phospholipidosis EC50 [µM]
[6], 0.3 µM	–	–	–	0.09	–
[6], 3 µM	–	–	–	0.1	–
[6], 10 µM	–	–	–	0.8	–
[6], 30 µM	–	–	–	0.78	–
[8], 0.3 µM	104	–	–	–	–
[8], 3 µM	94	–	–	–	–
[8], 10 µM	37	–	–	–	–
[8], 30 µM	9	–	–	–	–
[14], 24 h	–	–	–	–	9.15
[14], 48 h	–	–	–	–	9.16
[14], 72 h	–	–	–	–	15.6
[15], 0.3 µM	–	101	–	–	–
[15], 3 µM	–	100	–	–	–
[15], 10 µM	–	119	–	–	–
[15], 30 µM	–	119	–	–	–
[16], 1 nM	–	–	96	–	–
[16], 10 nM	–	–	102	–	–
[16], 100 nM	–	–	99.4	–	–
[16], 1000 nM	–	–	101	–	–
[16], 10000 nM	–	–	88.2	–	–
[17], 1 nM	–	–	110	–	–
[17], 10 nM	–	–	100	–	–
[17], 100 nM	–	–	97.7	–	–
[17], 1000 nM	–	–	111	–	–
[17], 10000 nM	–	–	95.9	–	–
[18], 1 nM	–	–	103	–	–
[18], 10 nM	–	–	97.1	–	–
[18], 100 nM	–	–	92.4	–	–
[18], 1000 nM	–	–	90.9	–	–
[18], 10000 nM	–	–	78.8	–	–
[19], 1 nM	–	–	106	–	–
[19], 10 nM	–	–	100	–	–
[19], 100 nM	–	–	101	–	–
[19], 1000 nM	–	–	93.7	–	–
[19], 10000 nM	–	–	91	–	–

drug-induced phospholipidosis [%], [7]
Settings	0.3 µM	0.833333 µM	3.33333 µM	6.66667 µM	10 µM	30 µM
24 h	3.9	1.59	17.6	53.6	65.6	111
48 h	2.99	-2.35	15.6	55.1	61.6	109
72 h	5.95	2.92	12.5	44.6	51.8	110

Source: the supplement of paper PMC13380429
